Where two headings read alike, the source gives them in different places.
How the values were obtained:
EHEC = assay type: cell-based, enterohemorrhagic Escherichia coli (EHEC) O157:H7
S. Typhimurium = assay type: cell-based, Salmonella enterica serovar Typhimurium; conditions: J774 macrophages, 5 nM
[1] = system: S. Typhimurium strain SL1344; design: species or system mice (BALB/c); conditions: mouse, in vivo
EAEC O104:H4 [2] = assay type: cell-based, enteroaggregative E. coli (EAEC); conditions: EAEC O104:H4, 5 nM, 24 h
UPEC = assay type: cell-based, uropathogenic E. coli (UPEC); conditions: for reduction of biofilm formation: 24 h
[3] = system: Pseudomonas and Klebsiella isolates; assay type: cell-based
EAEC O104:H4 [4] = assay type: cell-based, enteroaggregative E. coli (EAEC)
[5] = 5, 20, and 80 mg/kg daily for 14 days
QseC = conditions: cited from earlier work
in vivo = conditions: female, CD-1, mouse
hERG channel = hERG channel (Homo sapiens, UniProt Q12809); assay: in vitro
Sequence of hERG channel (Q12809 whole entry): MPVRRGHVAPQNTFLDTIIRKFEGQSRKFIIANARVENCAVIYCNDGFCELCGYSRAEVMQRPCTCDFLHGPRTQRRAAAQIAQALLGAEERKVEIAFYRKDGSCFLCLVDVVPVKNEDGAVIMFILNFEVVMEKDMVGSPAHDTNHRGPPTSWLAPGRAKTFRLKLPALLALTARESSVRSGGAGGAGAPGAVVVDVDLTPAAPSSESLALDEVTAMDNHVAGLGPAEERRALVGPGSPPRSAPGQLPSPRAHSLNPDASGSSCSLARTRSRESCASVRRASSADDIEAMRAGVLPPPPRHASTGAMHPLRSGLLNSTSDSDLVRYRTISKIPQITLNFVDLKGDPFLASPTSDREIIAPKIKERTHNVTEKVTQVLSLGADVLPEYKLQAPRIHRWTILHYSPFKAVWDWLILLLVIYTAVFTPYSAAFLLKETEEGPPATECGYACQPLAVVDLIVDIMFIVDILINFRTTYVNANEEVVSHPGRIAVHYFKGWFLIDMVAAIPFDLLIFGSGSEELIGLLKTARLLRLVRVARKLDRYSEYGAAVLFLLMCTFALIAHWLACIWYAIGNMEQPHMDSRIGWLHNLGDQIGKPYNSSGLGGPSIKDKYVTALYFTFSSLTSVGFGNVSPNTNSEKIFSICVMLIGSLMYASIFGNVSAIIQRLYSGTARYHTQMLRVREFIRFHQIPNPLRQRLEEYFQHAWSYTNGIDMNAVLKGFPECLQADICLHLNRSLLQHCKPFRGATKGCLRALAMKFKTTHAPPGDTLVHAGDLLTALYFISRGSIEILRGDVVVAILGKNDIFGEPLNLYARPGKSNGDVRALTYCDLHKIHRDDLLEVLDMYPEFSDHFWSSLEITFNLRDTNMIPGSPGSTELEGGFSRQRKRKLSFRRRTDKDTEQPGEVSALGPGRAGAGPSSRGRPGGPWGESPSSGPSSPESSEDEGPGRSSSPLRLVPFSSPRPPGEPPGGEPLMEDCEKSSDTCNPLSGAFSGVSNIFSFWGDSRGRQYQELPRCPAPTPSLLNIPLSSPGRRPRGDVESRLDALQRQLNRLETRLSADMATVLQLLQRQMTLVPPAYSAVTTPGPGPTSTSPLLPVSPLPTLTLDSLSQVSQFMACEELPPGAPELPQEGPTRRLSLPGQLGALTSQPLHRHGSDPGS

[6] = mouse, in vivo; cited from earlier work

**Q.** Which increase of ler (EHEC) does the source give for O=C(Nc1ccc(S(=O)(=O)Nc2ccccc2)cc1)Nc1nncs1 [CF290, 4-(3-(1,3,4-Thiadiazol-2-yl)ureido)-N-phenylbenzenesulfonamide] here?
**A.** The increase of ler was 2 fold.

**Q.** For COc1ccccc1NC(=O)Nc1ccc(S(=O)(=O)Nc2ccccc2)cc1 [CF287, 4-(3-(2-Methoxyphenyl)ureido)-N-phenylbenzenesulfonamide], which “expression of ler and stx2a” value (EHEC) is on record?
**A.** Its value is “lost the antagonist activity”.

**Q.** Which “expression of ler and stx2a” value (EHEC) does the source give for O=C(Nc1ccccc1)Nc1ccc(S(=O)(=O)NC2CCCCC2)cc1 [CF283, N-Cyclohexyl-4-(3-phenylureido)benzenesulfonamide] here?
**A.** The value was “significantly reduced”.

**Q.** Which results are given for O=S(=O)(Nc1ccccc1)c1ccc(NC(=S)Nc2ccccc2)cc1 [LED209, N-phenyl-4-(3-phenylthioureido)benzenesulfonamide]?
**A.** expression of key virulence genes (ler, tir, stx2a) (EHEC): phenocopied a qseC mutation; expression of ler and stx2a (EHEC): works as well as all of our previous LED209 batches; expression of the virulence genes (LEE: ler, tir) (EHEC): nonresponsive; expression of the virulence genes (ler) (EHEC): did not respond; decrease of survival of S. Typhimurium within macrophages (S. Typhimurium): 4 logs; mice remained alive [1]: 43%; mice remained alive ([1]; 20 mg/kg): 60%; mice survived ([1]; po, 20 mg/kg): 50%; reduction of biofilm formation (EAEC O104:H4 [2]): 37%; reduction in biofilm formation (UPEC; UPEC clinical isolate 6): 43%; reduction in biofilm formation (UPEC; UPEC clinical isolate 8): 48%; reduction in biofilm formation (UPEC; UPEC clinical isolate 25): 43%; reduction of biofilm formation (UPEC; UPEC strain CFT073, 5 nM, not significant): 8%; reduction of biofilm formation (UPEC; UPEC strain UTI89, 5 nM): 35%; reduction of biofilm formation ([3]; clinical isolate 18): 26%; reduction of biofilm formation ([3]; clinical isolate 20): 21%; expression of stx2a (EAEC O104:H4 [4]): significantly reduced; penetration of the blood-brain barrier (20 mg/kg): limited; peak concentrations in plasma (at each oral dose): high; exposures versus dose (oral doses above 80 mg/kg): increased less than proportionally; oral bioavailability (oral gavage, mice): good; pharmacokinetics by the oral route (oral gavage, mice): nonlinear; liver toxicity [5]: no liver toxicity; toxicity [5]: did not present any toxicity; QseC binding to its signals and autophosphorylation (QseC): preventing binding to its signals and consequently its autophosphorylation; half-life (in vivo): 0.667 to 1.67 h; inhibition at 10 µM (hERG channel): 4%; pharmacokinetics via the intravenous route [6]: linear

**Q.** For O=C(Nc1ccccc1)Nc1ccc(NS(=O)(=O)c2ccccc2)cc1 [CF252, N-(4-(3-Phenylureido)phenyl)benzenesulfonamide], which “expression of ler and stx2a” value (EHEC) is on record?
**A.** The value was “reversed the antagonist behavior”.

— PMC4235214 (mBio, 2014)
